Reference: ChEMBL document CHEMBL3217559, “Monocyte and macrophage selective anti-inflammatory kinase inhibitors” (Medchemcomm, 2012)

Tests used:
[1] = target: Mitogen-activated protein kinase 14 (Homo sapiens, UniProt Q16539); test: Inhibition of p38 MAP kinase alpha (unknown origin) after 1 hr by Z'-lyte assay
THP-1 = test: Inhibition of LPS-induced TNFalpha production in human THP1 cells; type: functional, cell-based
Blood = test: Inhibition of LPS-induced TNFalpha production in human whole blood; type: functional, tissue-based
MAP kinase p38 [2] = target: T1, MAP kinase p38 (Homo sapiens, UniProt O15264+Q15759+Q16539+P53778); test: Inhibition of p38 MAP kinase-mediated MAPKAPK2 phosphorylation in human U937 cells after 4 hrs by chemiluminescence assay; type: cell-based; settings: u-937
MAP kinase p38 [3] = target: T1, MAP kinase p38; test: Inhibition of p38 MAP kinase-mediated MAPKAPK2 phosphorylation in human Hut78 cells after 4 hrs by chemiluminescence assay; type: cell-based
Liver carboxylesterase 1 [4] = target: T2, Liver carboxylesterase 1 (Homo sapiens, UniProt P23141); test: Drug metabolism in human U937 cell lysate assessed as human CE1-mediated N-[2-(4-{6-Amino-5-[(2,4-difluorophenyl)carbonyl]-2-oxopyridin-1(2H)-yl}-3,5 difluorophenyl)ethyl]-L-leucine formation at 2.5 uM after 10 to 80 mins by LC/MS/MS analysis; type: ADME, cell-based; settings: u-937, 2.5 µM
T2 sequence (P23141 whole entry): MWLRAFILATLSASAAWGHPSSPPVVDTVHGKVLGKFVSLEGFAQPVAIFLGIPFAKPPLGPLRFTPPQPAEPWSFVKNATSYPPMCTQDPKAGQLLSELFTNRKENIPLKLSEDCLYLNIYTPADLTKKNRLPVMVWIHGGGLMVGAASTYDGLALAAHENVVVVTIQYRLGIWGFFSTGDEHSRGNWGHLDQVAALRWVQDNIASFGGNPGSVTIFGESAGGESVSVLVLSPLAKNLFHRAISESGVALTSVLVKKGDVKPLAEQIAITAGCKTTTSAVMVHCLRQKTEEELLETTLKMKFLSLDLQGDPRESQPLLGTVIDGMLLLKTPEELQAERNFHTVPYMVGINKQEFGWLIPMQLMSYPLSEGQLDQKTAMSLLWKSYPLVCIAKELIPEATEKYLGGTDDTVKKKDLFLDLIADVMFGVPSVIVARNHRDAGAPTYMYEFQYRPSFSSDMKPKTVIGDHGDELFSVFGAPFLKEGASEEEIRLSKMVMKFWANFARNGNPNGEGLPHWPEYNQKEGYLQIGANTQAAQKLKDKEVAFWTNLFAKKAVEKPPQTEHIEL

HuT78 [5] = test: Drug metabolism in human HUT78 cell lysate assessed as N-[2-(4-{6-Amino-5-[(2,4-difluorophenyl)carbonyl]-2-oxopyridin-1(2H)-yl}-3,5 difluorophenyl)ethyl]-L-leucine formation at 2.5 uM after 10 to 80 mins by LC/MS/MS analysis; type: ADME, cell-based; settings: hut78, 2.5 µM
Liver carboxylesterase 1 [6] = target: T2, Liver carboxylesterase 1; test: Drug metabolism in intact human U937 cells assessed as human CE1-mediated N-[2-(4-{6-Amino-5-[(2,4-difluorophenyl)carbonyl]-2-oxopyridin-1(2H)-yl}-3,5 difluorophenyl)ethyl]-L-leucine formation per million cells at 2.5 uM after 6 hrs by LC/MS/MS analysis; type: ADME, cell-based; settings: u-937, 6 h
HuT78 [7] = test: Drug metabolism in intact human HUT78 cells assessed as N-[2-(4-{6-Amino-5-[(2,4-difluorophenyl)carbonyl]-2-oxopyridin-1(2H)-yl}-3,5 difluorophenyl)ethyl]-L-leucine formation per million cells at 2.5 uM after 6 hrs by LC/MS/MS analysis; type: ADME, cell-based; settings: hut78, 6 h
Liver carboxylesterase 1 [8] = target: T2, Liver carboxylesterase 1; test: Drug metabolism in human U937 cell lysate assessed as human CE1-mediated 5-(4-{6-Amino-5-[(2,4-difluorophenyl)carbonyl]-2-oxopyridiny1(2H)-yl}-3,5-difluorophenoxy)-L-norvaline formation at 2.5 uM after 10 to 80 mins by LC/MS/MS analysis; type: ADME, cell-based; settings: u-937, 2.5 µM
HuT78 [9] = test: Drug metabolism in human HUT78 cell lysate assessed as 5-(4-{6-Amino-5-[(2,4-difluorophenyl)carbonyl]-2-oxopyridiny1(2H)-yl}-3,5-difluorophenoxy)-L-norvaline formation at 2.5 uM after 10 to 80 mins by LC/MS/MS analysis; type: ADME, cell-based; settings: hut78, 2.5 µM
Liver carboxylesterase 1 [10] = target: T2, Liver carboxylesterase 1; test: Drug metabolism in intact human U937 cells assessed as human CE1-mediated 5-(4-{6-Amino-5-[(2,4-difluorophenyl)carbonyl]-2-oxopyridiny1(2H)-yl}-3,5-difluorophenoxy)-L-norvaline formation per million cells at 2.5 uM after 6 hrs by LC/MS/MS analysis; type: ADME, cell-based; settings: u-937, 6 h
HuT78 [11] = test: Drug metabolism in intact human HUT78 cells assessed as 5-(4-{6-Amino-5-[(2,4-difluorophenyl)carbonyl]-2-oxopyridiny1(2H)-yl}-3,5-difluorophenoxy)-L-norvaline formation per million cells at 2.5 uM after 6 hrs by LC/MS/MS analysis; type: ADME, cell-based; settings: hut78, 6 h

Mitogen-activated protein kinase 14, sequence (Q16539 whole entry): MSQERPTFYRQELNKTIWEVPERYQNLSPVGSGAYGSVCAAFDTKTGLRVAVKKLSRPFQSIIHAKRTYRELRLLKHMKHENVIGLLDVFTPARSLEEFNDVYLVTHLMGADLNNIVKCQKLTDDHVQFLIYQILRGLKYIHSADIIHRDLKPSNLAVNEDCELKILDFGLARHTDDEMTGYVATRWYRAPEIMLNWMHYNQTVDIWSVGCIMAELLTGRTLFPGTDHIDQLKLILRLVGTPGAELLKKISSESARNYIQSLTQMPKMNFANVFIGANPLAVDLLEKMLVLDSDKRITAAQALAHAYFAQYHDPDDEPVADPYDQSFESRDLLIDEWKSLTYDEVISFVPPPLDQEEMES

Row | SMILES | IC50 [1] [nM] | IC50 (THP-1) [nM] | IC50 (Blood) [nM] | IC50 (MAP kinase p38 [2]) [nM] | IC50 (MAP kinase p38 [3]) [nM] | Drug metabolism (Liver carboxylesterase 1 [4]) [pg/mL/min] | Drug metabolism (HuT78 [5]) [pg/mL/min] | Drug metabolism (Liver carboxylesterase 1 [6]) [ng] | Drug metabolism (HuT78 [7]) [ng] | Drug metabolism (Liver carboxylesterase 1 [8]) [pg/mL/min] | Drug metabolism (HuT78 [9]) [pg/mL/min] | Drug metabolism (Liver carboxylesterase 1 [10]) [ng] | Drug metabolism (HuT78 [11]) [ng]
1 | Nc1c(C(=O)c2ccc(F)cc2F)ccc(=O)n1-c1c(F)cccc1F | 1.86 | 1.5 | 182 | 10 | 10 | – | – | – | – | – | – | – | –
2 | CC(C)C[C@H](NCCc1cc(F)c(-n2c(N)c(C(=O)c3ccc(F)cc3F)ccc2=O)c(F)c1)C(=O)OC1CCCC1 | 273 | 0.74 | 57.5 | 0.65 | 73 | 3036 | < 20 | 606 | 0.5 | – | – | – | –
3 | Nc1c(C(=O)c2ccc(F)cc2F)ccc(=O)n1-c1c(F)cc(OCCC[C@H](N)C(=O)OC2CCCC2)cc1F | 6.5 | 1.4 | 28.8 | 1 | 1 | – | – | – | – | 10613 | 14326 | 1407 | 727
4 | CC(C)C[C@H](NCCc1cc(F)c(-n2c(N)c(C(=O)c3ccc(F)cc3F)ccc2=O)c(F)c1)C(=O)O | 1.2 | – | – | – | – | – | – | – | – | – | – | – | –
5 | Nc1c(C(=O)c2ccc(F)cc2F)ccc(=O)n1-c1c(F)cc(OCCC[C@H](N)C(=O)O)cc1F | 1 | – | – | – | – | – | – | – | – | – | – | – | –
